Data on 1 compound can be found in US20230133958A1, “COMPOUNDS USEFUL IN MODULATING EGFR AND PI3K” (Mekanistic Therapeutics LLC, priority 2021, published 2023).

By IC50 is commonly meant the concentration at which inhibition is half-maximal. High values mean lower potency, low ones higher potency.

The structures appear in SMILES notation. A value given as a limit tells only on which side of the number the result lay.

One test addresses HER4 (Homo sapiens, UniProt Q15303). Nature of the test: Z'-LYTE / Adapta biochemical kinase assay, HER4. From the text:
(§1) The Z′-LYTE® biochemical assay employs a fluorescence-based, coupled-enzyme format and is based on the differential sensitivity of phosphorylated and non-phosphorylated peptides to proteolytic cleavage. The peptide substrate is labeled with two fluorophores—one at each end—that make up a FRET pair. In the primary reaction, the kinase transfers the gamma-phosphate of ATP to a single tyrosine, serine or threonine residue in a synthetic FRET-peptide. In the secondary reaction, a site-specific protease recognizes and cleaves non-phosphorylated FRET-peptides. Phosphorylation of FRET-peptides suppresses cleavage by the Development Reagent. […] A ratiometric method, which calculates the ratio (the Emission Ratio) of donor emission to acceptor emission after excitation of the donor fluorophore at 400 nm, is used to quantitate reaction progress.
(§2) A significant benefit of this ratiometric method for quantitating reaction progress is the elimination of well-to-well variations in FRET-peptide concentration and signal intensities. […]
(§3) Both cleaved and uncleaved FRET-peptides contribute to the fluorescence signals and therefore to the Emission Ratio. The extent of phosphorylation of the FRET-peptide can be calculated from the Emission Ratio. […]

Another test has as its target P13Kγ (Homo sapiens, UniProt P48736). Nature of the test: Z'-LYTE / Adapta biochemical kinase assay, PI3Kγ.
Excerpt: as §1, §2, §3

Another test addresses P13Kδ (Homo sapiens, UniProt O00329). Nature of the test: Z'-LYTE / Adapta biochemical kinase assay, PI3Kδ.
Excerpt: as §1, §2, §3

Sequence of P13Kδ (O00329 whole entry, stated change not applied): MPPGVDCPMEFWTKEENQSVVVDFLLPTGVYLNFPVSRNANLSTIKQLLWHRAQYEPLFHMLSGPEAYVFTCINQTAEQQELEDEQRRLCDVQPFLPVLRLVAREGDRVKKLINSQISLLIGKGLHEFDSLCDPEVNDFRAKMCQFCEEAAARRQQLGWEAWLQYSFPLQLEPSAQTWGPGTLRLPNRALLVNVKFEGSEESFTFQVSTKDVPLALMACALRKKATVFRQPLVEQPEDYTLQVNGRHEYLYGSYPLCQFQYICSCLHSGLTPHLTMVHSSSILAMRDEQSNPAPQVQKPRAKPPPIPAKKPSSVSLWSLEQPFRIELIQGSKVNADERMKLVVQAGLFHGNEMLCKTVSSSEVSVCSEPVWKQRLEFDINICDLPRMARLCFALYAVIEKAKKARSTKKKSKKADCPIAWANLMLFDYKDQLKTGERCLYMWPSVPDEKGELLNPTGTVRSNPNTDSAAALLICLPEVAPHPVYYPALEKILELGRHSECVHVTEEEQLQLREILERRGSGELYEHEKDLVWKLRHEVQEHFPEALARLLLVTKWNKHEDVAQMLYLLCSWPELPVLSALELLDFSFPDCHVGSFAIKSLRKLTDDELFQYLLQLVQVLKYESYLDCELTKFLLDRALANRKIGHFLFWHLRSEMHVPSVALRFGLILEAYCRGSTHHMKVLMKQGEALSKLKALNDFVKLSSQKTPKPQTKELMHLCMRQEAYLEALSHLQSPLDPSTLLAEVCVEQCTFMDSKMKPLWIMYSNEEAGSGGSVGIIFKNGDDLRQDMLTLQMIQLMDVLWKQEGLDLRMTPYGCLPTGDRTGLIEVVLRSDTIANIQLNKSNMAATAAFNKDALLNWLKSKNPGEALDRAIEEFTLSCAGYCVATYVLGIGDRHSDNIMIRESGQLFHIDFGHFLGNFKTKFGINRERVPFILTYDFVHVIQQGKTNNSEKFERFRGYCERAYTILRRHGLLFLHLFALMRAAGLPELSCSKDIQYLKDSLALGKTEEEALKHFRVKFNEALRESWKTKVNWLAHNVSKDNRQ
Sequence of P13Kδ (P27986 2-724 partner limits assumed): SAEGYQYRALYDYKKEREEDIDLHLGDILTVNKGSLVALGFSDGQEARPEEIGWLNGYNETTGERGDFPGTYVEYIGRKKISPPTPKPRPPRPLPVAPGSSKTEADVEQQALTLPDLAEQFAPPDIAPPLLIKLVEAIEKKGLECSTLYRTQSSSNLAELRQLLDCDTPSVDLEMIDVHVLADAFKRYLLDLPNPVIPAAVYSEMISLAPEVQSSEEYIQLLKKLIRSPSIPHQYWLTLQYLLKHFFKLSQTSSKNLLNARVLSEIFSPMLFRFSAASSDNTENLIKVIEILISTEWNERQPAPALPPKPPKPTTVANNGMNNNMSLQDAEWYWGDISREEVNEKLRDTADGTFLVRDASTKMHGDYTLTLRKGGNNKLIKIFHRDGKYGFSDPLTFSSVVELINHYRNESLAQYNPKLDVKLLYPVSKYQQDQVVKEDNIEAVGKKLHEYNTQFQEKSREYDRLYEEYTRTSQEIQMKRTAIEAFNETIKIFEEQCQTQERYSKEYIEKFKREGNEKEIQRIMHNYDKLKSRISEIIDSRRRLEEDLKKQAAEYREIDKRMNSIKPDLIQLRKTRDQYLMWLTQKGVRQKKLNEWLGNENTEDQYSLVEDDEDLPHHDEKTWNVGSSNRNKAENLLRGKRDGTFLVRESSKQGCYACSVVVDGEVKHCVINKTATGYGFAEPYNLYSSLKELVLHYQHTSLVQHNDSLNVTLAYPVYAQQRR
Sequence of HER4 (Q15303 26-1308): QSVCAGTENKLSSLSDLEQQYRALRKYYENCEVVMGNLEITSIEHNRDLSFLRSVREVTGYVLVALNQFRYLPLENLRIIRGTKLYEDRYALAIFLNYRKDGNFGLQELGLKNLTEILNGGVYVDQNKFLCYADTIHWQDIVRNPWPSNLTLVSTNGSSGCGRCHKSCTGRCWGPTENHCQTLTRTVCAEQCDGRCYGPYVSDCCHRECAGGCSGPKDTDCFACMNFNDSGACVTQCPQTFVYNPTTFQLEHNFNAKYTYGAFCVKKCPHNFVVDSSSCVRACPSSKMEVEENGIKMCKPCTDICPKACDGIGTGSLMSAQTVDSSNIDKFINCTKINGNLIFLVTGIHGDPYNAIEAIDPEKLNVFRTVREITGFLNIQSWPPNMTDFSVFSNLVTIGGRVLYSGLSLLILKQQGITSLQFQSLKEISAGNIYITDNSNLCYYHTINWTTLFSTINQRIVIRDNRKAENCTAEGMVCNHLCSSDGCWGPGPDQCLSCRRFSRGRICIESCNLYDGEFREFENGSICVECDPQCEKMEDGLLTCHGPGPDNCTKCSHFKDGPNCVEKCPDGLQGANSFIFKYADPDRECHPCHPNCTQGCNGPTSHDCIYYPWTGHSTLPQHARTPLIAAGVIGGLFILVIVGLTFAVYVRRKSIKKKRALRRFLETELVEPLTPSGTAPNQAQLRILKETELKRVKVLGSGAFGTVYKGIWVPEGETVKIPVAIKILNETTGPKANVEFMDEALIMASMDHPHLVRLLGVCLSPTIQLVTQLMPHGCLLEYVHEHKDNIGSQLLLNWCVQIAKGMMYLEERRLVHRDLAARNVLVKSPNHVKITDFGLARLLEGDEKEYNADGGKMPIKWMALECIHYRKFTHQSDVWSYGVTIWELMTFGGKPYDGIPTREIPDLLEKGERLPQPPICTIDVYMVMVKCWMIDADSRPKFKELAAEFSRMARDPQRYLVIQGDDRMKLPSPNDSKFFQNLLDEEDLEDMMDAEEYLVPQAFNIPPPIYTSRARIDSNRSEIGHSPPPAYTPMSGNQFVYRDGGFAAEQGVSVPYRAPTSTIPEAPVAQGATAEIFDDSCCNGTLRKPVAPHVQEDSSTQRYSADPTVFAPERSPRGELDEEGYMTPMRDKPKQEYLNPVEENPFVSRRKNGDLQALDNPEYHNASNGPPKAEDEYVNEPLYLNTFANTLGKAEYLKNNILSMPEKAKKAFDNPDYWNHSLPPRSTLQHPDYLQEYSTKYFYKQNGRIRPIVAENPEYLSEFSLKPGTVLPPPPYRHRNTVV
Sequence of P13Kγ (P48736 whole entry, stated change not applied): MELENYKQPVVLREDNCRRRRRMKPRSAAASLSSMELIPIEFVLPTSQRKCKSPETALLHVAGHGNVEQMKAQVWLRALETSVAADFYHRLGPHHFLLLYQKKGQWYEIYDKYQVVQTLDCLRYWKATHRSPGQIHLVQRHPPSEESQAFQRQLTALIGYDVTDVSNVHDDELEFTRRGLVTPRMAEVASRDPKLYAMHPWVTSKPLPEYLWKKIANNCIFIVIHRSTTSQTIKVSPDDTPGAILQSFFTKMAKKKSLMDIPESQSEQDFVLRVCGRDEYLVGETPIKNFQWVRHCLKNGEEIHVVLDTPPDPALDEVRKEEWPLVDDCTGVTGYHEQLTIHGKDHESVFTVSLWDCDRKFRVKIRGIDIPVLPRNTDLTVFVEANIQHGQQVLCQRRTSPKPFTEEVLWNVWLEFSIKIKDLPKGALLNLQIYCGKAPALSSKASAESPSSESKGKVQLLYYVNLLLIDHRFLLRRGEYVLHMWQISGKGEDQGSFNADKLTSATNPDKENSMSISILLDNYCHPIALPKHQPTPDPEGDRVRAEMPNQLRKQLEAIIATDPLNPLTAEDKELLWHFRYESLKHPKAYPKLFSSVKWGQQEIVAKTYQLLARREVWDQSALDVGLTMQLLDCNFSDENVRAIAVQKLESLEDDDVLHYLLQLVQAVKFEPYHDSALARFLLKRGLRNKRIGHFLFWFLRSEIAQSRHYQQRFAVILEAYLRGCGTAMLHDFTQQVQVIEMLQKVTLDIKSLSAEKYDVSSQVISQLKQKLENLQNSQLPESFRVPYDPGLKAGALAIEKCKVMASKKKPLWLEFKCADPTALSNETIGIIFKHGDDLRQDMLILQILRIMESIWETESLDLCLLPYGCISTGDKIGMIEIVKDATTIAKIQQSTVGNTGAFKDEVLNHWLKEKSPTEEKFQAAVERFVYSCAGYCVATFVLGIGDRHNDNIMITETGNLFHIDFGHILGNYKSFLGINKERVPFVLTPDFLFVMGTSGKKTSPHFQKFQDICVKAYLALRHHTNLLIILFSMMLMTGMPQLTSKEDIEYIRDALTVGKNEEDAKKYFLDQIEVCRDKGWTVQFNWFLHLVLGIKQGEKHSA

On to `CS(=O)(=O)Nc1cc(-c2ccc3ncnc(Nc4cccc(Cl)c4F)c3c2)cnc1Cl` [Compound 6, N-[2-chloro-5-[4-(3-chloro-2-fluoro-anilino)quinazolin-6-yl]-3-pyridyl] methanesulfonamide], for which the results for the half-inhibitory concentration (IC50) against HER4, against P13Kγ and at P13Kδ were above 200 nM, at most 2 nM and at most 2 nM, respectively.
